Measured values taken from patent US9969964B2, “Disease-on-a-chip” (Purdue Research Foundation, priority 2013, dated 2018).

Test system: T4-2 tumor nodules
Test: Apoptosis (TUNEL assay combined with DAPI scoring of pyknotic and karyorrhectic nuclei) of T4-2 tumor nodules treated with chemotherapeutic drugs
Assay type: cell-based
Conditions: for sensitivity of tumor nodules to drug (apoptosis): T4-2 nodules cocultured with S1 non-neoplastic breast epithelium on flat surfaces compared to monocultures of tumor nodules, FIG. 21 and 22; for sensitivity of cancer cells to drug (apoptosis): T4-2 nodules cocultured with S1 within semicircular hemichannels versus on flat surfaces
Description: The findings described above prompted a test of the sensitivity of T4-2 tumor nodules to the chemotherapeutic drugs bleomycin (BLM, a radiomimetic agent used in the laboratory to study cellular responses to treatments that compromise genome integrity) and doxorubicin (DOX, an anthracycline used for the treatment of breast cancer). In this study, apoptosis was utilized as an endpoint to evaluate drug responses and was quantified using the TUNEL assay combined with visual scoring for pyknotic and karyorrhectic nuclei via DAPI staining (i.e. nuclear condensation and fragmentation, respectively). Three types of T4-2 nodules were compared: monocultures, cocultures with S1 luminal epithelium on the flat surface of the chip, and cocultures with S1 epithelium in the semicircular hemichannels.
This difference is intriguing and could not be explained by the proliferation status within nodules on flat surfaces and in hemichannels (27.5%±1.8% and 24.2%±2.5% Ki67-positive cells, respectively; P=0.292, unpaired t-test, n>10 nodule sections corresponding to >700 nuclei). […] It is possible that the microenvironment or the geometry in the hemichannels promotes modifications in the nuclear organization of tumor cells, which may influence cellular responses to cytotoxic drugs. This view is supported by the measured differences in nuclear circularity reported above, and is in agreement with early recommendations that nuclear morphometric descriptors, including roundness, should be investigated as possible predictors of response to therapy. The disease-on-a-chip system used for coculture with cancer cells provides a system with potential for improved understanding of cancer development and drug assessment in tissue context.

Molecule | sensitivity of tumor nodules to drug (apoptosis) | sensitivity of cancer cells to drug (apoptosis) | toxicity to T4-2 nodules (drug concentration chosen to ease detection of increased sensitivity to genotoxic stress, should minimally affect cell survival)
COc1cccc2c1C(=O)c1c(O)c3c(c(O)c1C2=O)C[C@@](O)(C(=O)CO)C[C@@H]3O[C@H]1C[C@H](N)[C@H](O)[C@H](C)O1 [DOX, doxorubicin] | increased sensitivity | significantly less | 
bleomycin [BLM] | increased sensitivity | significantly less | low toxicity
